pIC50: −log10 of the molar value.
Tests used:
[1] = test system: MIA PaCa-2 (human pancreatic carcinoma) cells; assay: Cell Viability Assay (CellTiter-Glo), MIA PaCa-2; assay type: cell-based
Procedure: Serially-diluted compound or DMSO was added to the cells, and plates were incubated at 37° C., 5% CO2 for 72 h. Cell viability was measured using a CellTiter-Glo® Luminescent Cell Viability Assay kit (Promega) according to the manufacturer's protocol. The luminescence signal of treated samples was normalized to DMSO control, and data were analyzed using a 4-parameter logistic model to calculate IC50 values.

[2] = test system: A549 (human lung carcinoma) cells; assay: Cell Viability Assay (CellTiter-Glo), A549; assay type: cell-based
Outline: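 Cells grown in RPMI 1640 with 10% FBS were seeded at 1.67E+04 cells/mL and left overnight at 37° C., 5% CO2. They were then exposed to serially diluted compound for 72 h, after which CellTiter-Glo luminescence was read, normalized to DMSO, and fitted to a 4-parameter logistic model for IC50.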

KRAS G12C = KRAS G12C (Homo sapiens (Human), UniProt P01116, C118A/G12C); assay: 2 h coupled exchange assay; assay type: biochemical; conditions: Avg 2 h Coupled exchange IC50, 2 h compound pre-incubation
Procedure: The term “2 h coupled exchange assay” or “20 h coupled exchange assay” as used herein refers to the assay described in the Section entitled “BIOLOGICAL EVALUATION.”

KRAS G12C, sequence (P01116 other isoform, or with tags, fused parts or gaps G12C/C118A): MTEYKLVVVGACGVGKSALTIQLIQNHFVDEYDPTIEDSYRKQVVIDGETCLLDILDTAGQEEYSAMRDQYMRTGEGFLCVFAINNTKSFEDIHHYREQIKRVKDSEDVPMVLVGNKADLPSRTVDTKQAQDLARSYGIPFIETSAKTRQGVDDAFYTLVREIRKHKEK

SMILES | pIC50 ([1]; Homo sapiens, MIA PaCa-2, 72 h) | pIC50 ([2]; Homo sapiens, A549, 72 h) | pIC50 (KRAS G12C) | pIC50 ([1]; 72 h) | pIC50 ([2]; 72 h)
C=CC(=O)N1CC2(CCN(c3nc4c(c(-c5c(C)c(Cl)cc6cnn(C)c56)c3C)COC(C)(C)C4)C2)C1 (single isomer, unassigned) [Example 14-89, (P)-1-(6-(4-(5-chloro-1,6-dimethyl-1H-indazol-7-yl)-3,7,7-trimethyl-7,8-dihydro-5H-pyrano[4,3-b]pyridin-2-yl)-2,6-diazaspiro[3.4]octan-2-yl)-2-propen-1-one] | 7.10 | 5.74 | 7.09 |  | 
C=CC(=O)N1CC2(CCN(c3nc4c(c(-c5c(C)ccc6cn[nH]c56)c3C)CC[C@H](c3c(C)cnn3C)C4)C2)C1 (single isomer, unassigned) [Example 14-97] | 6.60 | 5.00 | 6.68 |  | 
C=CC(=O)N1CC2(CCN(c3nc4c(c(-c5c(C)ccc6cnn(C)c56)c3C)CC[C@@H](c3c(C)cnn3C)C4)C2)C1 (single isomer, unassigned) [Example 14-98] | 7.10 | < 5.30 | 7.15 |  | 
C=CC(=O)N1CC2(CCN(c3nc4c(c(-c5c(C)ccc6cnn(C)c56)c3C)COC(C)(C)C4)C2)C1 (single isomer, unassigned) [Example 14-99, (P)-1-(6-(4-(1,6-dimethyl-1H-indazol-7-yl)-3,7,7-trimethyl-7,8-dihydro-5H-pyrano[4,3-b]pyridin-2-yl)-2,6-diazaspiro[3.4]octan-2-yl)-2-propen-1-one] | 7.10 | < 5.30 | 7.15 |  | 
C=CC(=O)N1CC2(CCN(c3nc4c(c(-c5cc(O)cc6ccccc56)c3C)COC(C)(C)C4)C2)C1 (single isomer, unassigned) [Example 14-103, (M)-1-(6-(4-(3-hydroxy-1-naphthalenyl)-3,7,7-trimethyl-7,8-dihydro-5H-pyrano[4,3-b]pyridin-2-yl)-2,6-diazaspiro[3.4]octan-2-yl)-2-propen-1-one] | 7.49 | 5.12 | 7.35 |  | 
C=CC(=O)N1CC2(CCN(c3nc4c(c(-c5cccc6cc(O)ccc56)c3C)CCN(C(C)C)C4)C2)C1 (single isomer, unassigned) [Example 18-4, (P)-1-(6-(4-(6-hydroxy-1-naphthalenyl)-3-methyl-7-(2-propanyl)-5,6,7,8-tetrahydro-1,7-naphthyridin-2-yl)-2,6-diazaspiro[3.4]octan-2-yl)-2-propane-1-one] | 7.92 | < 5.30 | 7.77 |  | 
C=CC(=O)N1CC2(CCN(c3nc4c(c(-c5c(C)ccc6[nH]ncc56)c3C)CCN(C(C)C)C4)C2)C1 (single isomer, unassigned) [Example 18-19, (P)-1-(6-(3-methyl-4-(5-methyl-1H-indazol-4-yl)-7-(2-propanyl)-5,6,7,8-tetrahydro-1,7-naphthyridin-2-yl)-2,6-diazaspiro[3.4]octan-2-yl)-2-propane-1-one] |  | < 4.60 | 6.88 | 7.25 | 
C=CC(=O)N1CC2(CCN(c3nc4c(c(-c5c(C)ccc6[nH]ncc56)c3C)CCN(C(C)C)C4)C2)C1 (single isomer, unassigned) [Example 18-22, (M)-1-(6-(3-methyl-4-(5-methyl-1H-indazol-4-yl)-7-(2-propanyl)-5,6,7,8-tetrahydro-1,7-naphthyridin-2-yl)-2,6-diazaspiro[3.4]octan-2-yl)-2-propen-1-one] |  |  | 5.16 | 6.09 | < 4.70
C=CC(=O)N1CC2(CCN(c3nc4cc(-c5scnc5C)ccc4c(-c4c(O)cccc4F)c3C#N)C2)C1 (single isomer, unassigned) [Example 19-4, (P)-4-(2-fluoro-6-hydroxyphenyl)-7-(4-methyl-1,3-thiazol-5-yl)-2-(2-(2-propenoyl)-2,6-diazaspiro[3.4]octan-6-yl)-3-quinolinecarbonitrile] |  | < 5.30 | 7.42 | 6.16 | 
C=CC(=O)N1CC2(CCN(c3nc4cc(-c5scnc5C)ccc4c(-c4ccccc4C)c3C#N)C2)C1 (single isomer, unassigned) [Example 19-11, (P)-4-(2-methylphenyl)-7-(4-methyl-1,3-thiazol-5-yl)-2-(2-(2-propenoyl)-2,6-diazaspiro[3.4]octan-6-yl)-3-quinolinecarbonitrile] | 5.87 | < 5.30 | 7.17 |  | 
C=CC(=O)N1CC2(CCN(c3nc4cc(-c5scnc5C)ccc4c(-c4ccccc4C)c3C#N)C2)C1 (single isomer, unassigned) [Example 19-12, (M)-4-(2-methylphenyl)-7-(4-methyl-1,3-thiazol-5-yl)-2-(2-(2-propenoyl)-2,6-diazaspiro[3.4]octan-6-yl)-3-quinolinecarbonitrile] |  |  | 7.13 | 5.85 | 5.42
C=CC(=O)N1CC2(CCN(c3nc4cc(-c5scnc5C)cnc4c(-c4cccc(C)c4C)c3C#N)C2)C1 (single isomer, unassigned) [Example 19-13, (M)-4-(2,3-dimethylphenyl)-7-(4-methyl-1,3-thiazol-5-yl)-2-(2-(2-propenoyl)-2,6-diazaspiro[3.4]octan-6-yl)-1,5-naphthyridine-3-carbonitrile] | 6.17 | < 5.30 | 7.17 |  | 
C=CC(=O)N1CC2(CCN(c3nc4cc(-c5scnc5C)cnc4c(-c4cccc(C)c4C)c3C#N)C2)C1 (single isomer, unassigned) [Example 19-14, (P)-4-(2,3-dimethylphenyl)-7-(4-methyl-1,3-thiazol-5-yl)-2-(2-(2-propenoyl)-2,6-diazaspiro[3.4]octan-6-yl)-1,5-naphthyridine-3-carbonitrile] |  |  | 7.42 | 6.44 | < 5.30
C=CC(=O)N1CC2(CCN(c3nc4cc(-c5scnc5C)ccc4c(-c4c(O)cccc4F)c3C#N)C2)C1 (single isomer, unassigned) [Example 19-15, (M)-4-(2-fluoro-6-hydroxyphenyl)-7-(4-methyl-1,3-thiazol-5-yl)-2-(2-(2-propenoyl)-2,6-diazaspiro[3.4]octan-6-yl)-3-quinolinecarbonitrile] |  |  | 5.53 | 5.34 | 5.12

Now from value to compound:

pIC50 ([1]; Homo sapiens, MIA PaCa-2, 72 h) | pIC50 ([2]; Homo sapiens, A549, 72 h) | pIC50 (KRAS G12C) | pIC50 ([1]; 72 h) | pIC50 ([2]; 72 h) | SMILES
 | < 5.30 | 6.56 | 5.66 |  | C=CC(=O)N1CC2(CCN(c3nc4cc(-c5scnc5C)ccc4c(-c4ccccc4Cl)c3C#N)C2)C1 (single isomer, unassigned) [Example 20-3, (M)-4-(2-chlorophenyl)-7-(4-methyl-1,3-thiazol-5-yl)-2-(2-(2-propenoyl)-2,6-diazaspiro[3.4]octan-6-yl)-3-quinolinecarbonitrile]
 |  | 7.16 | 6.00 | < 5.30 | C=CC(=O)N1CC2(CCN(c3nc4cc(-c5scnc5C)ccc4c(-c4ccccc4Cl)c3C#N)C2)C1 (single isomer, unassigned) [Example 20-4, (P)-4-(2-chlorophenyl)-7-(4-methyl-1,3-thiazol-5-yl)-2-(2-(2-propenoyl)-2,6-diazaspiro[3.4]octan-6-yl)-3-quinolinecarbonitrile]
 | < 5.30 | 6.86 | 6.01 |  | C=CC(=O)N1CC2(CCN(c3nc4cc(-c5scnc5C)cnc4c(-c4ccccc4Cl)c3C#N)C2)C1 (single isomer, unassigned) [Example 20-8, (M)-4-(2-chlorophenyl)-7-(4-methyl-1,3-thiazol-5-yl)-2-(2-(2-propenoyl)-2,6-diazaspiro[3.4]octan-6-yl)-1,5-naphthyridine-3-carbonitrile]
 |  | 7.38 | 6.70 | 5.50 | C=CC(=O)N1CC2(CCN(c3nc4cc(-c5scnc5C)cnc4c(-c4ccccc4Cl)c3C#N)C2)C1 (single isomer, unassigned) [Example 20-9, (P)-4-(2-chlorophenyl)-7-(4-methyl-1,3-thiazol-5-yl)-2-(2-(2-propenoyl)-2,6-diazaspiro[3.4]octan-6-yl)-1,5-naphthyridine-3-carbonitrile]
 | < 5.30 | 7.47 | 6.77 |  | C=CC(=O)N1CC2(CCN(c3nc4c(c(-c5ccccc5Cl)c3C#N)CCN(c3scnc3C)C4)C2)C1 (single isomer, unassigned) [Example 21-22, (P)-4-(2-chlorophenyl)-7-(4-methyl-1,3-thiazol-5-yl)-2-(2-(2-propenoyl)-2,6-diazaspiro[3.4]octan-6-yl)-5,6,7,8-tetrahydro-1,7-naphthyridine-3-carbonitrile]
 |  | 6.94 | 6.21 | < 5.30 | C=CC(=O)N1CC2(CCN(c3nc4c(c(-c5ccccc5Cl)c3C#N)CCN(c3scnc3C)C4)C2)C1 (single isomer, unassigned) [Example 21-23, (M)-4-(2-chlorophenyl)-7-(4-methyl-1,3-thiazol-5-yl)-2-(2-(2-propenoyl)-2,6-diazaspiro[3.4]octan-6-yl)-5,6,7,8-tetrahydro-1,7-naphthyridine-3-carbonitrile]
 |  | 7.74 | 6.53 | < 5.30 | C=CC(=O)N1CC2(CCN(c3nc4c(c(-c5cc(O)ccc5Cl)c3C#N)CCN(c3scnc3C)C4)C2)C1 (single isomer, unassigned) [Example 21-24, (P)-4-(2-chloro-5-hydroxyphenyl)-7-(4-methyl-1,3-thiazol-5-yl)-2-(2-(2-propenoyl)-2,6-diazaspiro[3.4]octan-6-yl)-5,6,7,8-tetrahydro-1,7-naphthyridine-3-carbonitrile]

— US20240059703A1 (AMGEN INC., priority 2021, published 2024)
